Measurements as given in ChEMBL document CHEMBL1132801, “NMR analysis of tautomerisms of active pinacidil-type potassium channel openers and a less active one” (2000).

System: Canis familiaris
Test: The compound was tested for its antihypertensive activity in dogs after intravenous injection
Type: functional, Canis lupus familiaris

Row | SMILES | Relative activity
1 | CCC(C)(C)/N=C(\NC#N)Nc1cc(Cl)cc(C#N)c1 | 2.04
2 | CC(N/C(=C\[N+](=O)[O-])Nc1ccccc1)C(C)(C)C (centres undefined) | 1.82
3 | CCC(C)(C)N/C(=C\C#N)Nc1cc(Cl)cc(C#N)c1 | <0.3
4 | CC(N/C(=N\C#N)Nc1ccncc1)C(C)(C)C (centres undefined) [PINACIDIL ANHYDROUS] | 1
